In US20050074879A1, “Antisense oligonucleotide modulation of STAT3 expression” (priority 2000, published 2005):
Oligonucleotides are written 5' to 3', each unit as a sugar letter and its base; * is a phosphorothioate linkage, no mark a phosphodiester; rarer units and linkages stand in square brackets, end groups in braces. Plain capitals give the bases only. e = 2'-O-(2-methoxyethyl) (MOE); [5mC] = 5-methylcytosine; d = 2'-deoxy (DNA)

The substances below were run on Human STAT3 mRNA (assay: Inhibition of human STAT3 mRNA levels in A549 cells, 75 nM, real-time PCR (Table 13)). Details: 75 nM oligonucleotide with LIPOFECTIN, real-time PCR PPS 199, percent inhibition relative to untreated control cells, average of 2 experiments.
Format: cell-based
Experimental: Oligonucleotide activity is assayed by quantitation of STAT3 mRNA levels by real-time PCR (RT-PCR) using the ABI PRISMS 7700 Sequence Detection System (PE-Applied Biosystems, Foster City, Calif.) according to manufacturer's instructions. This is a closed-tube, non-gel-based, fluorescence detection system which allows high-throughput quantitation of polymerase chain reaction (PCR) products in real-time. As opposed to standard PCR, in which amplification products are quantitated after the PCR is completed, products in RT-PCR are quantitated as they accumulate. This is accomplished by including in the PCR reaction an oligonucleotide probe that anneals specifically between the forward and reverse PCR primers, and contains two fluorescent dyes. A reporter dye (e.g., JOE or FAM, PE-Applied Biosystems, Foster City, Calif.) is attached to the 5′ end of the probe and a quencher dye (e.g., TAMRA, PE-Applied Biosystems, Foster City, Calif.) is attached to the 3′ end of the probe. When the probe and dyes are intact, reporter dye emission is quenched by the proximity of the 3′ quencher dye. During amplification, annealing of the probe to the target sequence creates a substrate that can be cleaved by the 5′-exonuclease activity of Taq polymerase. […] With each cycle, additional reporter dye molecules are cleaved from their respective probes, and the fluorescence intensity is monitored at regular (six-second) intervals by laser optics built into the ABI PRISM™ 7700 Sequence Detection System. In each assay, a series of parallel reactions containing serial dilutions of mRNA from untreated control samples generates a standard curve that is used to quantitate the percent inhibition after antisense oligonucleotide treatment of test samples.
RT-PCR reagents are obtained from PE-Applied Biosystems, Foster City, Calif. RT-PCR reactions are carried out by adding 25 l PCR cocktail (1× TAQMAN7 buffer A, 5.5 mM MgCl2, 300 µM each of DATP, dCTP and dGTP, 600 µM of dUTP, 100 nM each of forward primer, reverse primer, and probe, 20 U RNAse inhibitor, 1.25 units AMPLITAQ GOLD7, and 12.5 U MuLV reverse transcriptase) to 96 well plates containing 25 l poly(A) mRNA solution. The RT reaction is carried out by incubation for 30 minutes at 48° C. following a 10 minute incubation at 95° C. to activate the AMPLITAQ GOLD7, 40 cycles of a two-step PCR protocol are carried out: 95° C. for 15 seconds (denaturation) followed by 60° C. for 1.5 minutes (annealing/extension).
The compounds were analyzed for their effect on STAT3 mRNA levels in A549 cells. The human lung carcinoma cell line A549 was obtained from the American Type Culture Collection (ATCC) (Manassas, Va.). A549 cells were routinely cultured in DMEM basal media (Invitrogen Corporation, Carlsbad, Calif.) supplemented with 10% fetal calf serum (Invitrogen Corporation, Carlsbad, Calif.), 100 units/mL penicillin, and 100 ug/mL streptomycin (Invitrogen Corporation, Carlsbad, Calif.). Cells were routinely passaged by trypsinization and dilution when they reached 90% confluence.
When cells reached 65-75% confluency, they were treated with oligonucleotide. For cells grown in 96-well plates, wells were washed once with […] OPTI-MEM-1 reduced-serum medium (Invitrogen Corporation, Carlsbad, Calif.) and then treated with 130 µL of OPTI-MEM-1 containing […] LIPOFECTIN (Invitrogen Corporation, Carlsbad, Calif.) and 75 nM of the compounds in Table 13. Cells were treated and data were obtained in duplicate. Untreated cells served as controls. After 4-7 hours of treatment at 37° C., the medium was replaced with fresh medium. Cells were harvested 16-24 hours after oligonucleotide treatment. STAT3 mRNA levels in A549 cells were quantitated by real-time PCR as described by other methods herein.
Probes and primers to human STAT3 were designed to hybridize to a human STAT3 sequence, using published sequence information (incorporated herein as SEQ ID NO: 1). For STAT 3 the PCR primers were: • forward primer: […]
In the case of “337314 (antisense e[5mC]*eT*e[5mC]*eA*eA*dA*dG*dG*dT*dG*dA*dT*d[5mC]*dA*dG*eG*eT*eG*e[5mC]*eA) [compound 337314]”, the “% Inhib (inhibition of human STAT 3 mRNA levels)” value (“% Inhib” for short) is reported as 75%. In the case of “337315 (antisense eG*eA*eG*eG*e[5mC]*d[5mC]*dT*dT*dG*dG*dT*dG*dA*dT*dA*e[5mC]*eA*e[5mC]*e[5mC]*eT) [compound 337315]”, the “% Inhib” value is reported as 46%. With “337316 (antisense eT*e[5mC]*eA*eA*eT*d[5mC]*dT*dT*dG*dA*dG*dG*d[5mC]*d[5mC]*dT*eT*eG*eG*eT*eG) [compound 337316]” the “% Inhib” value was 59%. For “337317 (antisense e[5mC]*eT*eA*eG*eG*dT*d[5mC]*dA*dA*dT*d[5mC]*dT*dT*dG*dA*eG*eG*e[5mC]*e[5mC]*eT) [compound 337317]”, the “% Inhib” value was 55%. With “337318 (antisense eG*eG*eT*e[5mC]*eT*d[5mC]*dT*dA*dG*dG*dT*d[5mC]*dA*dA*dT*e[5mC]*eT*eT*eG*eA) [compound 337318]” the “% Inhib” value was 74%. In the case of “337319 (antisense eA*eA*eG*eG*eA*dG*dT*dG*dG*dG*dT*d[5mC]*dT*d[5mC]*dT*eA*eG*eG*eT*e[5mC]) [compound 337319]”, the “% Inhib” value is reported as 38%. For “337320 (antisense e[5mC]*eT*eG*eG*e[5mC]*dA*dA*dG*dG*dA*dG*dT*dG*dG*dG*eT*e[5mC]*eT*e[5mC]*eT) [compound 337320]”, the “% Inhib” value was 74%. For “337321 (antisense eA*e[5mC]*e[5mC]*eA*e[5mC]*dA*dA*d[5mC]*dT*dG*dG*d[5mC]*dA*dA*dG*eG*eA*eG*eT*eG) [compound 337321]”, the “% Inhib” value was 80%. For “337322 (antisense eT*e[5mC]*eT*eG*eA*d[5mC]*dA*dG*dA*dT*dG*dT*dT*dG*dG*eA*eG*eA*eT*e[5mC]) [compound 337322]”, the “% Inhib” value was 69%. With “337323 (antisense eT*eG*eG*e[5mC]*eA*dT*d[5mC]*dT*dG*dA*d[5mC]*dA*dG*dA*dT*eG*eT*eT*eG*eG) [compound 337323]” the “% Inhib” value was 79%. For “337324 (antisense eG*e[5mC]*eA*eT*eT*dT*dG*dG*d[5mC]*dA*dT*d[5mC]*dT*dG*dA*e[5mC]*eA*eG*eA*eT) [compound 337324]”, the “% Inhib” value was 79%. In the case of “337325 (antisense eT*eT*e[5mC]*eT*eT*dG*dG*dG*dA*dT*dT*dG*dT*dT*dG*eG*eT*e[5mC]*eA*eG) [compound 337325]”, the “% Inhib” value is reported as 75%. For “337326 (antisense eG*eT*e[5mC]*eA*eG*d[5mC]*dT*dG*d[5mC]*dT*d[5mC]*dG*dA*dT*dG*e[5mC]*eT*e[5mC]*eA*eG) [compound 337326]”, the “% Inhib” value was 78%. “337327 (antisense eT*e[5mC]*e[5mC]*e[5mC]*eA*dA*dG*dA*dG*dT*dT*dT*d[5mC]*dT*d[5mC]*eT*eG*e[5mC]*e[5mC]*eA) [compound 337327]” was tested, and the “% Inhib” value was 84%. “337328 (antisense e[5mC]*eA*eT*eG*eT*dG*dA*dT*d[5mC]*dT*dG*dA*d[5mC]*dA*d[5mC]*e[5mC]*e[5mC]*eT*eG*eA) [compound 337328]” was tested, and the “% Inhib” value was 85%. For “337329 (antisense eT*eA*eG*e[5mC]*e[5mC]*d[5mC]*dA*dT*dG*dT*dG*dA*dT*d[5mC]*dT*eG*eA*e[5mC]*eA*e[5mC]) [compound 337329]”, the “% Inhib” value was 88%. In the case of “337330 (antisense eG*e[5mC]*e[5mC]*eA*eT*dG*dT*dT*dT*dT*d[5mC]*dT*dT*dT*dG*e[5mC]*eA*eA*eA*eA) [compound 337330]”, the “% Inhib” value is reported as 59%. For “337331 (antisense e[5mC]*e[5mC]*eT*eT*eG*d[5mC]*d[5mC]*dA*dG*d[5mC]*d[5mC]*dA*dT*dG*dT*eT*eT*eT*e[5mC]*eT) [compound 337331]”, the “% Inhib” value was 88%. For “337334 (antisense e[5mC]*e[5mC]*e[5mC]*eA*eG*dA*dA*dG*dG*dA*dG*dA*dA*dG*d[5mC]*e[5mC]*e[5mC]*eT*eT*eG) [compound 337334]”, the “% Inhib” value was 85%. With “337335 (antisense eT*e[5mC]*e[5mC]*eA*eG*d[5mC]*d[5mC]*dA*dG*dA*d[5mC]*d[5mC]*d[5mC]*dA*dG*eA*eA*eG*eG*eA) [compound 337335]” the “% Inhib” value was 86%. In the case of “337336 (antisense eT*e[5mC]*eT*eT*eT*dG*d[5mC]*dT*dG*d[5mC]*dT*dT*dT*d[5mC]*dA*e[5mC]*eT*eG*eA*eA) [compound 337336]”, the “% Inhib” value is reported as 79%. With “337337 (antisense eA*eT*eG*eT*eT*dG*dT*dT*d[5mC]*dA*dG*d[5mC]*dT*dG*d[5mC]*eT*eG*e[5mC]*eT*eT) [compound 337337]” the “% Inhib” value was 76%. “337338 (antisense eA*eT*eG*eA*e[5mC]*dA*dT*dG*dT*dT*dG*dT*dT*d[5mC]*dA*eG*e[5mC]*eT*eG*e[5mC]) [compound 337338]” was tested, and the “% Inhib” value was 80%. For “337339 (antisense eA*eG*e[5mC]*eA*eA*dA*dT*dG*dA*d[5mC]*dA*dT*dG*dT*dT*eG*eT*eT*e[5mC]*eA) [compound 337339]”, the “% Inhib” value was 84%. For “337340 (antisense eA*eT*eT*eT*e[5mC]*dA*dG*d[5mC]*dA*dA*dA*dT*dG*dA*d[5mC]*eA*eT*eG*eT*eT) [compound 337340]”, the “% Inhib” value was 72%. With “337341 (antisense eT*eG*eA*eT*eG*dA*dT*dT*dT*d[5mC]*dA*dG*d[5mC]*dA*dA*eA*eT*eG*eA*e[5mC]) [compound 337341]” the “% Inhib” value was 74%. With “337342 (antisense eT*eT*eA*eT*eA*dG*d[5mC]*d[5mC]*d[5mC]*dA*dT*dG*dA*dT*dG*eA*eT*eT*eT*e[5mC]) [compound 337342]” the “% Inhib” value was 81%. In the case of “337343 (antisense eT*eG*eA*eT*e[5mC]*dT*dT*dA*dT*dA*dG*d[5mC]*d[5mC]*d[5mC]*dA*eT*eG*eA*eT*eG) [compound 337343]”, the “% Inhib” value is reported as 84%. For “337345 (antisense eG*eG*eT*eA*eG*d[5mC]*dA*dT*d[5mC]*d[5mC]*dA*dT*dG*dA*dT*e[5mC]*eT*eT*eA*eT) [compound 337345]”, the “% Inhib” value was 86%. In the case of “337346 (antisense eA*eA*eT*eG*eT*d[5mC]*dA*dG*dG*dA*dT*dA*dG*dA*dG*eA*eT*eA*eG*eA) [compound 337346]”, the “% Inhib” value is reported as 55%. “337347 (antisense eG*e[5mC]*e[5mC]*eT*e[5mC]*d[5mC]*dT*d[5mC]*d[5mC]*dT*dT*dG*dG*dG*dA*eA*eT*eG*eT*e[5mC]) [compound 337347]” was tested, and the “% Inhib” value was 88%. “337349 (antisense eT*eA*e[5mC]*eT*eT*dT*d[5mC]*d[5mC]*dG*dA*dA*dT*dG*d[5mC]*d[5mC]*eT*e[5mC]*e[5mC]*eT*e[5mC]) [compound 337349]” was tested, and the “% Inhib” value was 65%.
